The values that follow come from patent US20040053847A1, “Diastereomeric peptitdes and pharmaceutical compositions comprising them” (priority 2000, published 2004).

One data set concerns human breast MCF-7 cells. Kind of data set: Xenograft model of human breast MCF-7 cells in SCID mice. The format is in vivo. As to the method: The in-vivo anticancer assay was conducted on SCID (Severe Combined Immune Deficiency) mice using the xenograft model of human breast MCF-7 cells. Groups of 6 SCID female mice weighing 18-20 g (6-week old), bred in an animal isolator (IVC racks under specific pathogen-free (SPF) conditions at 24±1° C., were used. Viable human breast carcinoma MCF-7 cells (ATCC HTB-22−1×10^7 cells in 0.2 ml of PBS) were injected subcutaneously (s.c.) into the dorsal side of SCID mice. 50 μg/mouse of estradiol benzoate was injected s.c. weekly as a supplement for 4 weeks. […] Mitomycin at a dose of 2 mg/kg was administered intraperitoneally (IP) twice a week for 5 doses. The tumor size, body weight and the signs of overt animal toxicity after each treatment were recorded and observed. At the end of the experiment, hematological analysis was carried out.

Data set [1] has as its system Cryptococcus neoformans ATCC 66031. Type of data set: cell-based. As to the method:
(§1) The antifungal activity of the diastereomers was examined in sterile 96-well plates (Nunc F96 microtiter plates) in a final volume of 200 μL as follows: 100 μl of a suspension containing fungi at concentration of 1×10^4 Colony-Forming Units (CFU)/ml in culture medium (RPMI 1640, 0.165 M MOPS pH 7.0, with L-glutamine, without NaHCO3) was added to 100 μl of water containing the peptide in serial 2-fold dilutions in water. The fungi were incubated in the presence of the diastereomeric peptides for 24-48 h at 35° C. in a Binder KB115 incubator under agitation. Growth inhibition was determined by measuring the absorbance at 620 nm with a Microplate autoreader E1309 (Bio-tek Instruments). Antifungal activity is expressed as the minimal inhibitory concentration (MIC), the concentration at which 100% inhibition of growth was observed after the incubation time mentioned above. The fungi used were: Aspergillus niger ATCC 9642, Candida albicans ATCC 10231 and Cryptococcus neoformans ATCC 66031.

Data set [2] relates to Aspergillus niger ATCC 9642. The format is cell-based. As to conditions: ATCC 9642. On the procedure:
as §1

Data set [3] has as its system Candida albicans ATCC 10231. The format is cell-based. As to conditions: ATCC 10231. As to the method:
as §1

A short description of data set [4]: Cell selectivity, Trypan blue cell viability, LC50. The format is cell-based, mouse. As to conditions: mouse, NIH-3T3 fibroblasts; 50% cell mortality after 24 h incubation, medium without serum; read-out: Lethal Concentration (LC50), NIH-3T3 fibroblasts.
For data set [5], the system named is B16 F10 mouse melanoma cell line. Kind of data set: In vitro anticancer activity, Trypan blue cell viability, LC50. As to conditions: 50% cell mortality after 24 h incubation, medium without serum. On the procedure: The anticancer activity of the diastereomers 1, 2, 8, 9 and 10 was examined against B16 F10 mouse melanoma cell line. Melanoma cells were grown in RPMI-1640 medium supplemented with 10% fetal calf serum and antibiotics, at 37° C., in humidified atmosphere at 5% CO2 and 95% air. In addition, the cell-selectivity of the diastereomeric peptides was studied by examining their effect on NIH-3T3 normal fibroblasts cell line. NIH-3T3 mouse fibroblasts cells were grown in DMEM medium supplemented with 10% bovine calf serum and antibiotics under the same conditions as described above for B16 F10 mouse melanoma cells. Melanoma cells (2×10^5 cells ml^−1) or NIH-3T3 cells (2.5×10^5 cells ml^−1) were seeded in tissue culture plates (3.5 cm). After 48 h, cells were washed thrice with the corresponding medium. Then the cells were incubated at 37° C. in medium (without serum and antibiotics) in the presence of the tested diastereomeric peptides dissolved in PBS, at different concentrations. […] Following 24 h of incubation, the cells were harvested with trypsin (0.25%)-EDTA (0.05%) and centrifuiged for 10 min at 270×g. The precipitated cells were suspended in the corresponding medium and counted in a hemocytometer (Neubauer). Cell viability was determined by Trypan blue dye exclusion.

For data set [6], the system named is PC-3 prostate adenocarcinoma. The format is cell-based, human. To be noted: 24 h. As to the method: (§2) Aliquots of 100 μl of tumor cell suspension (about 2.5-5×10^3/well) were placed in 96-well microtiter plates in an atmosphere of 5% CO2 at 37° C. […] At the end of incubation, 20 μl of AlamarBlue 75% reagent was added to each well for another 6-hour incubation before detection of cell viability by fluorescence intensity. Fluorescence intensity was measured using a Spectraflour Plus plate reader with excitation at 530 nm and emission at 590 nm. The assays were used to detect changes in cell proliferation based on the ability of viable cells to cause AlamarBlue to change from its oxidized (non-fluorescent, blue) to a reduced (fluorescent, red) form. With the results obtained from the AlamarBlue reaction, cell proliferation can be quantified and metabolic activity of viable cells can be examined.

The test system of data set [7] is SK-MEL- (ATCC HTB-70) malignant melanoma. The format is cell-based, human. To be noted: 24 h. As to the method: as §2
The test system of data set [8] is MCF-7 breast adenocarcinoma. Type of data set: cell-based, human. To be noted: 24 h. On the procedure:
as §2

The next data set has as its system A549 lung carcinoma. Type of data set: cell-based, human. As to conditions: 24 h. On the procedure:
as §2

Data set [9] relates to HT-29 colon adenocarcinoma. The format is cell-based, human. As to conditions: 24 h. On the procedure:
as §2

Where [10] appears, read: Hematology analysis on Day 25, MEAN ± SEM.
Setting [11] is: hematological analysis at the end of the assay.
The mark [12] stands for this setting: peptide 9 3 mg/kg IV, mitomycin 2 mg/kg IP.

≈ marks a conversion by molar mass, not a printed value. Square brackets hold non-standard residues; d marks the D form. Peptide text beside a SMILES is read from it.

On to `CO[C@@]12[C@H](COC(N)=O)C3=C(C(=O)C(C)=C(N)C3=O)N1C[C@@H]1N[C@@H]12` [Mitomycin C, mitomycin C], for which, in the data set on human breast MCF-7 cells (setting [10]), the PLT turned out to be 396000 µL⁻¹, the RBC is given as 10.55 ± 0.37 × 10^6/μl and the WBC amounted to 670 µL⁻¹. Further, in the data set on human breast MCF-7 cells (setting [11]), the “Reduction of RBC” value is given as “significant reduction”; the “Reduction of WBC and platelets” value is “significant reduction”. Also, in the data set with human breast MCF-7 cells (peptide 9 3 mg/kg IV twice a week, 6 doses, mitomycin 2 mg/kg IP twice a week, 5 doses), the “Effect on tumor growth (FIG. 1)” value is listed as “more potent than peptide 9”. In the data set with human breast MCF-7 cells (setting [12]), the “Body weight and condition of animals (FIG. 2)” value is “signs of weakness and loss of weight”; the “Side effects in treated animals” value is on record as “severe side effects throughout the assay period”.
Consider `CC(C)C[C@H](NC(=O)[C@H](CC(C)C)NC(=O)[C@@H](CCCCN)NC(=O)[C@H](CC(C)C)NC(=O)[C@H](CC(C)C)NC(=O)[C@H](CCCCN)NC(=O)[C@@H](CCCCN)NC(=O)[C@@H](CC(C)C)NC(=O)[C@H](CC(C)C)NC(=O)[C@H](CCCCN)NC(=O)[C@H](CCCCN)NC(=O)[C@H](CC(C)C)NC(=O)[C@@H](CC(C)C)NC(=O)[C@H](CCCCN)NC(=O)[C@@H](N)CC(C)C)C(N)=O` [Peptide 3, [D]-L^3,8,K^9,13-K6L9] (H-LK[dL]LKKL[dL][dK]KLL[dK]LL-NH2; N-terminus assumed), for which the “MIC, C. neoformans ATCC 66031” value in data set [1] came to 2.8 µg/mL (≈ 1.55 µM). The “MIC, A. niger ATCC 9642” value in [2] was determined as 90 µg/mL (≈ 49.9 µM). The “MIC, C. albicans ATCC 10231” value in data set [3] stood at 40 µg/mL (≈ 22.2 µM).
For `CC(C)C[C@H](NC(=O)[C@H](CC(C)C)NC(=O)[C@@H](CCCCN)NC(=O)[C@H](CC(C)C)NC(=O)[C@H](CC(C)C)NC(=O)[C@H](CCCCN)NC(=O)[C@@H](CCCCN)NC(=O)[C@@H](CC(C)C)NC(=O)[C@H](CC(C)C)NC(=O)[C@@H](CCCCN)NC(=O)[C@H](CCCCN)NC(=O)[C@H](CC(C)C)NC(=O)[C@@H](CC(C)C)NC(=O)[C@H](CCCCN)NC(=O)[C@@H](N)CC(C)C)C(N)=O` [Peptide 4, [D]-L^3,8,K^6,9,13-K6L9] (H-LK[dL]LK[dK]L[dL][dK]KLL[dK]LL-NH2; N-terminus assumed), in that order: 5.6 µg/mL (≈ 3.1 µM), 180 µg/mL (≈ 99.7 µM) and 50 µg/mL (≈ 27.7 µM).
As for `CC(C)C[C@H](NC(=O)CN)C(=O)N[C@H](CC(C)C)C(=O)N[C@@H](CC(C)C)C(=O)N[C@@H](CCCNC(=N)N)C(=O)N[C@H](CC(C)C)C(=O)N[C@@H](CC(C)C)C(=O)N[C@H](CCCCN)C(=O)N[C@H](CCCCN)C(=O)N[C@@H](CC(C)C)C(=O)N[C@@H](CC(C)C)C(=O)N[C@@H](CCCNC(=N)N)C(=O)N[C@H](CC(C)C)C(=O)N[C@@H](CC(C)C)C(=O)N[C@@H](CCCCN)C(=O)N[C@@H](CCCCN)C(N)=O` [Peptide 5, [D]-L^3,6,13,K^8,9-GK4R2L9] (H-GL[dL]LR[dL]L[dK][dK]LLR[dL]LKK-NH2; N-terminus assumed), in data set [1], the “MIC, C. neoformans ATCC 66031” value is 3 µg/mL (≈ 1.56 µM). In addition, the “MIC, A. niger ATCC 9642” value in data set [2] was 50 µg/mL (≈ 26.1 µM). Further, in [3], the “MIC, C. albicans ATCC 10231” value stood at 50 µg/mL (≈ 26.1 µM).
As for `CC(C)C[C@H](NC(=O)[C@H](CCCCN)NC(=O)[C@@H](CC(C)C)NC(=O)[C@H](CC(C)C)NC(=O)[C@@H](N)CCCCN)C(=O)N[C@@H](CC(C)C)C(=O)N[C@H](CCCCN)C(=O)N[C@H](CCCCN)C(=O)N[C@@H](CC(C)C)C(=O)N[C@H](CC(C)C)C(=O)N[C@@H](CCCCN)C(=O)N[C@@H](CC(C)C)C(=O)N[C@H](CC(C)C)C(=O)N[C@@H](CC(C)C)C(=O)N[C@@H](CCCCN)C(N)=O` [Peptide 7, [D]-L^3,10,13,K^7,8-K6L9] (H-KL[dL]KLL[dK][dK]L[dL]KL[dL]LK-NH2; N-terminus assumed), the “MIC, C. neoformans ATCC 66031” value in data set [1] was determined as 2.9 µg/mL (≈ 1.61 µM). Also, the “MIC, A. niger ATCC 9642” value in data set [2] is 50 µg/mL (≈ 27.7 µM). Further, the “MIC, C. albicans ATCC 10231” value in data set [3] was 50 µg/mL (≈ 27.7 µM).
For the compound `CC(C)C[C@H](NC(=O)CN)C(=O)N[C@H](CC(C)C)C(=O)N[C@@H](CCCCN)C(=O)N[C@@H](CC(C)C)C(=O)N[C@@H](CC(C)C)C(=O)N[C@H](CCCCN)C(=O)N[C@H](CCCCN)C(=O)N[C@@H](CC(C)C)C(=O)N[C@H](CC(C)C)C(=O)N[C@@H](CCCCN)C(=O)N[C@@H](CC(C)C)C(=O)N[C@H](CC(C)C)C(=O)N[C@@H](CC(C)C)C(=O)N[C@@H](CCCCN)C(=O)N[C@@H](CCCCN)C(N)=O` [Peptide 8, [D]-L^3,10,13,K^7,8-GK6L9] (H-GL[dL]KLL[dK][dK]L[dL]KL[dL]LKK-NH2; N-terminus assumed), in data set [4], the CC50 at 24 h is 30 µg/mL (≈ 16.1 µM). In data set [5], the “Lethal Concentration (LC50), B16-F10 melanoma” value came to 9 µg/mL. Besides, the “MIC, C. neoformans ATCC 66031” value in data set [1] is 1.5 µg/mL (≈ 0.806 µM). The “MIC, A. niger ATCC 9642” value in data set [2] stood at 30 µg/mL (≈ 16.1 µM). In addition, the “MIC, C. albicans ATCC 10231” value in data set [3] is 30 µg/mL (≈ 16.1 µM).
As a reminder, the IC50 is the point on the concentration scale where inhibition reaches its midpoint. Low values mean inhibition by little substance, high ones a need for much substance. With `CC(C)C[C@H](NC(=O)[C@H](CC(C)C)NC(=O)[C@@H](CCCCN)NC(=O)[C@@H](CCCCN)NC(=O)[C@H](CC(C)C)NC(=O)[C@@H](CC(C)C)NC(=O)[C@H](CCCCN)NC(=O)[C@H](CC(C)C)NC(=O)[C@@H](CC(C)C)NC(=O)[C@H](CC(C)C)NC(=O)[C@@H](N)CCCCN)C(=O)N[C@@H](CCCCN)C(=O)N[C@H](CC(C)C)C(=O)N[C@@H](CC(C)C)C(=O)N[C@@H](CCCCN)C(N)=O` [Peptide 10, [D]-L^3,6,13,K^8,9,13-K6L9] (H-KL[dL]LK[dL]L[dK][dK]LLK[dL]LK-NH2; N-terminus assumed), in [4], the CC50 at 24 h is 140 µg/mL (≈ 77.6 µM). In addition, the IC50 worked out at 8.9 µM in data set [6]; 2.6 µM in [7]; 3.6 µM in data set [8]; 2.4 µM in the data set with A549 lung carcinoma; 15 µM in data set [9].
